Measurements taken from PMC12387383, “Screening and Assessment of Hypoglycemic Active Peptide from Natural Edible Pigment Phycobiliprotein Based on Molecular Docking, Network Pharmacology, Enzyme Inhibition Assay Analyses, and Cell Experiments” (Marine Drugs, 2025).
Each block holds one compound with its values, some of them ahead of it. Peptide text beside a SMILES is read from it.

How the values were obtained:
[1] = biological target: T1, DPP-IV (Homo sapiens, UniProt P27487); test: DPP-IV inhibitor screening kit (fluorescence); assay type: biochemical; details: mean ± SD, n = 3
T1 construct: purchased Elabscience Biotechnology Co., Ltd. E-BC-D007
T1 sequence (P27487 whole entry, species assumed): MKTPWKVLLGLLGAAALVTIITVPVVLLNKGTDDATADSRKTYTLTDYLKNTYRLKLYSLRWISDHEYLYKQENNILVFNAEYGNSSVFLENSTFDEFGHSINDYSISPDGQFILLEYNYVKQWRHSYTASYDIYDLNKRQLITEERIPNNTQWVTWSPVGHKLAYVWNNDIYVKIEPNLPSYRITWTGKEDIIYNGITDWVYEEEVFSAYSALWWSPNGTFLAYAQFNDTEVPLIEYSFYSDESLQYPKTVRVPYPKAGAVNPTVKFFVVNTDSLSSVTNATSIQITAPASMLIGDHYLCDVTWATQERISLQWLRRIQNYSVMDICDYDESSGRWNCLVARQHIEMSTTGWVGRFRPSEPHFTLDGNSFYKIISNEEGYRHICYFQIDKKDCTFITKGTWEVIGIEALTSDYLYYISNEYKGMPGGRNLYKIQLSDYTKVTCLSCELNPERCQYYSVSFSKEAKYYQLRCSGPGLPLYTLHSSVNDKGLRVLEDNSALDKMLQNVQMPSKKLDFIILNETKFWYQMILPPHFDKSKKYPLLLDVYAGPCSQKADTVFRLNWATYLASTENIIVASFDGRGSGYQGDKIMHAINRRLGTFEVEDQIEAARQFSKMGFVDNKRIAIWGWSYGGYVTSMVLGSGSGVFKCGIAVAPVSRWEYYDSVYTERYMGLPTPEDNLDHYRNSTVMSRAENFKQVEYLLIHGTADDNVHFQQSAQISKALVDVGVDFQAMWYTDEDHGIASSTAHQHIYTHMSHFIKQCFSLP
Protocol: The hypoglycemic active peptides were synthesized via solid-phase synthesis by Shanghai science peptide Co., Ltd. (Shanghai, China). The purity and molecular weight of the synthesized peptides were confirmed using HPLC-MS. The α-glucosidase inhibitory activity was assessed a modified version of previously reported methods by adding 100 μL of p-NPG (1 mM) after 50 μL of peptide solution (0.125–2.0 mg/mL), and 50 μL of α-glucosidase (1 u/mL) were incubated at 37 °C for 15 min. Absorbance was measured at 405 nm after the reaction was stopped by adding 100 μL of […] after another 30 min of incubation. Similarly, α-amylase inhibitory activity was determined based on established protocols with minor modifications. Briefly, 100 μL of peptide solution (0.125–2.0 mg/mL) was mixed with 100 μL of α-amylase (1 U/mL) and incubated at 37 °C for 10 min. Then, 200 μL of pretreated soluble starch solution (2%, denatured at 95 °C for 8 min) was added, and the mixture was further incubated at 37 °C for 20 min. The reaction was stopped by adding 200 μL of DNS reagent (1% DNS; 12% sodium potassium tartrate in 0.4 M Na2CO3), followed by boiling at 100 °C for 15 min. After cooling, 200 μL of each reaction mixture was transferred to a 96-well plate, and absorbance was measured at 540 nm. DPP-IV inhibitory activity was evaluated using a DPP-IV inhibitor screening kit (Elabscience) following the manufacturer’s instructions with slight modifications. Peptide solutions were prepared at gradient concentrations (0.125, 0.25, 0.5, 1, 1.5, 2, 4, and 10 mg/mL). In a 96-well plate, 20 μL of enzyme solution and 30 μL of peptide sample were added to each well, mixed briefly, and incubated at 37 °C for 10 min. Then, 170 μL of reaction working solution was added, followed by a second incubation at 37 °C for 30 min. Fluorescence intensity was measured at an excitation wavelength of 360 nm and an emission wavelength of 460 nm. The IC50 values were determined by fitting dose–response curves using nonlinear regression analysis with a variable slope in GraphPad Prism 9. All IC50 results are expressed as mean ± SD based on three independent experiments.

[2] = test system: IR-HepG2 cells; test: Glucose consumption in IR-HepG2 cells; assay type: cell-based; details: 2 mmol/L, IR-HepG2, compared to baseline, positive control
Protocol: HepG2 cells were maintained in Dulbecco’s Modified Eagle Medium (DMEM) supplemented with 10% fetal bovine serum and 1% penicillin–streptomycin under controlled conditions at 37 °C in a humidified atmosphere containing 5% CO2 for 24 h.
(§1) The IR-HepG2 cellular model was established as described in Section 3.6. […] Cell viability was evaluated in all groups to determine appropriate peptide concentrations and incubation times based on the criteria of non-cytotoxicity and maximal glucose consumption.
(§2) Glucose consumption was measured using a commercial glucose assay kit according to the manufacturer’s protocol. Intracellular glycogen content was quantified with a glycogen detection kit, while hexokinase (HK) and pyruvate kinase (PK) enzyme activities were determined using specific assay kits, following the provided instructions.

[3] = test system: IR-HepG2 cells; test: Intracellular glycogen content in IR-HepG2 cells; assay type: cell-based; details: GR-5, SA-6, VF-6 at 2 mmol/L, IR-7 at 1 mmol/L
Protocol: as §1, §2

[4] = test system: pyruvate kinase (PK) in IR-HepG2 cells; test: Pyruvate kinase activity in IR-HepG2 cells; assay type: cell-based; details: IR-HepG2, vs model control; GR-5, SA-6, VF-6 at 2 mmol/L, IR-7 at 1 mmol/L
Protocol: as §1, §2

[5] = test system: hexokinase (HK) in IR-HepG2 cells; test: Hexokinase activity in IR-HepG2 cells; assay type: cell-based; details: IR-HepG2, vs model control; GR-5, SA-6, VF-6 at 2 mmol/L, IR-7 at 1 mmol/L
Protocol: as §1, §2

[6] = biological target: T2, α-amylase (Sus scrofa, UniProt P00690); details: literature value; cited from earlier work
T2 sequence (P00690 16-511): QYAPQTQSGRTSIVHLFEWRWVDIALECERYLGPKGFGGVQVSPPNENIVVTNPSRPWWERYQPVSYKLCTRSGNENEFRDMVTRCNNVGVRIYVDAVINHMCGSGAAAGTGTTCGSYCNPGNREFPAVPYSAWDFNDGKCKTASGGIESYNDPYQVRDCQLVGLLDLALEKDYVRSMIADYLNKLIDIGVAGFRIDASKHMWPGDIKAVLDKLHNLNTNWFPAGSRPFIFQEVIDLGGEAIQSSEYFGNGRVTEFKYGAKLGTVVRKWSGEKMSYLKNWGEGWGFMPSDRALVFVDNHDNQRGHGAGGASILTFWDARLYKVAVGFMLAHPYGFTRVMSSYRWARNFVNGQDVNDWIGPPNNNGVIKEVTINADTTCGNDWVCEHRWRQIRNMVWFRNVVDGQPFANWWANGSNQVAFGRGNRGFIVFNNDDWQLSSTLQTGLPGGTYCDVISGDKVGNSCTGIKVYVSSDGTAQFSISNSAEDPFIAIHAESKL

- IC50 [1]: 6.97 mM
Compound: CC(C)C[C@H](NC(=O)[C@H](Cc1ccc(O)cc1)NC(=O)[C@H](Cc1ccc(O)cc1)NC(=O)CN)C(=O)N[C@@H](CCCNC(=N)N)C(=O)O [GR-5, Gly-Tyr-Tyr-Leu-Arg] (H-GYYLR-OH; N-terminus and C-terminus assumed)

- IC50 [1]: 11 mM
Compound: C[C@H](NC(=O)[C@H](CCCNC(=N)N)NC(=O)[C@H](CC(=O)O)NC(=O)[C@H](Cc1ccccc1)NC(=O)[C@H](Cc1ccc(O)cc1)NC(=O)[C@@H](N)CO)C(=O)O [SA-6, Ser-Tyr-Phe-Asp-Arg-Ala] (H-SYFDRA-OH; N-terminus and C-terminus assumed)

The remaining lines, values behind:

Compound: CC[C@H](C)[C@H](N)C(=O)N[C@@H](C)C(=O)N[C@@H](CO)C(=O)N[C@@H](Cc1ccc(O)cc1)C(=O)N[C@@H](Cc1ccccc1)C(=O)N[C@@H](CC(=O)O)C(=O)N[C@@H](CCCNC(=N)N)C(=O)O [IR-7, Ile-Ala-Ser-Tyr-Phe-Asp-Arg] (H-IASYFDR-OH; N-terminus and C-terminus assumed)
- IC50 [1]: 1.04 mM

Compound: CC(C)[C@H](N)C(=O)N[C@@H](C)C(=O)N[C@@H](Cc1ccccc1)C(=O)NCC(=O)N[C@@H](CCCNC(=N)N)C(=O)N[C@@H](Cc1ccccc1)C(=O)O [VF-6, Val-Ala-Phe-Gly-Arg-Phe] (H-VAFGRF-OH; N-terminus and C-terminus assumed)
- IC50 [1]: 1.36 mM

Compound: CN(C)C(=N)N=C(N)N [metformin]
- increase in glucose consumption [2]: 105%
- increase in glycogen content [3]: 24.2%
- increase in PK activity [4]: 21.1%
- increase in HK activity [5]: 54.9%

Compound: FPSPPLVA
- α-amylase IC50 [6]: 0.92 ± 0.27 mg/mL

Compound: GPPMPPPPLP
- α-amylase IC50 [6]: 2.02 ± 0.2 mg/mL
